The supplement of paper PMC11821682

Experiments:
Danio rerio embryo = assay: BMC10 any morphological effect or mortality at 120 hpf; higher = less toxic
Description: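 ZBEscreen: dechorionated Tropical 5D zebrafish embryos were exposed from 4 hpf in 96-well plates (1% DMSO, 28 °C). All compounds were first tested at 100 µM; hits were retested at 0.005-100 µM. Morphology and mortality were scored at 120 hpf and fitted as BMC10 (3-parameter log-logistic, extra risk). The embryonic photomotor response at 24 hpf and the larval photomotor response at 120 hpf are given as lowest effect levels (K-S test, p<0.01). NA = not significant up to 100 µM; NT = not tested.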

HL-60 = assay: Cell Health Index (toxicity pseudo-probability over dose series) (index 0-1); higher = more cytotoxic / cell stress;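 further: HL-60 cells exposed 4 h at 37 °C to ten threefold dilutions spanning 5 nM to 100 µM, multiparametric flow cytometry features scored by machine-learning classification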

| SMILES | BMC10 any morphological effect or mortality (Danio rerio embryo) | Cell Health Index (HL-60) |
| --- | --- | --- |
| CC(C)(C)C(=O)OCOP(=O)(COCCn1cnc2c(N)ncnc21)OCOC(=O)C(C)(C)C [Adefovir dipivoxil] | > 100 µM | 0.258 |
| C1=C2CCCN[C@H]2[C@@H]2C[C@H]1[C@H]1CCCCN1C2 [Aloperine] | > 100 µM | 0.209 |
| Cl.NC12C[C@H]3C[C@@H](C1)C[C@@H](C2)C3 [Amantadine] | > 100 µM | 0.195 |
| Cc1cccc(C)c1N(CC(=O)Nc1ccc(-c2ncon2)cc1)C(=O)C1CCS(=O)(=O)CC1 [Amenamevir] | > 100 µM | 0.215 |
| O=c1cc(-c2ccc(O)c(-c3c(O)cc(O)c4c(=O)cc(-c5ccc(O)cc5)oc34)c2)oc2cc(O)cc(O)c12 [Amentoflavone] | > 100 µM | 0.74 |
| CC(C)CN(C[C@@H](O)[C@H](Cc1ccccc1)NC(=O)O[C@H]1CCOC1)S(=O)(=O)c1ccc(N)cc1 [Amprenavir] | > 100 µM | 0.181 |
| COc1cc(OC)c2c(=O)nc(-c3cc(C)c(OCCO)c(C)c3)[nH]c2c1 [Apabetalone] | > 100 µM | 0.344 |
| COc1ccc(C[C@H]2COC(=O)[C@@H]2Cc2ccc(O[C@@H]3O[C@H](CO)[C@@H](O)[C@H](O)[C@H]3O)c(OC)c2)cc1OC [Arctiin] | > 100 µM | 0.192 |
| C[C@H]1[C@H](C)CC[C@]2(C(=O)O)CC[C@]3(C)C(=CC[C@@H]4[C@@]5(C)C[C@@H](O)[C@H](O)[C@@](C)(CO)[C@@H]5CC[C@]43C)[C@H]12 [Asiatic acid] | > 100 µM | 0.478 |
| CC(=O)Oc1ccccc1C(=O)O [Aspirin] | > 100 µM | 0.198 |
| CC(C)(O)[C@@H]1CC[C@](C)([C@H]2[C@@H](O)C[C@@]3(C)[C@@H]4C[C@H](O[C@@H]5O[C@H](CO)[C@@H](O)[C@H](O)[C@H]5O)[C@H]5C(C)(C)[C@@H](O[C@@H]6OC[C@@H](O)[C@H](O)[C@H]6O)CC[C@@]56C[C@@]46CC[C@]23C)O1 [Astragaloside IV] | > 100 µM | 0.16 |
| COC(=O)N[C@H](C(=O)N[C@@H](Cc1ccccc1)[C@@H](O)CN(Cc1ccc(-c2ccccn2)cc1)NC(=O)[C@@H](NC(=O)OC)C(C)(C)C)C(C)(C)C [Atazanavir] | > 100 µM | 0.374 |
| OCC1=C[C@@H](O)[C@@H]2C=CO[C@@H](O[C@@H]3O[C@H](CO)[C@@H](O)[C@H](O)[C@H]3O)[C@H]12 [Aucubin] | > 100 µM | 0.304 |
| O=C(O)[C@H]1O[C@@H](Oc2cc3oc(-c4ccccc4)cc(=O)c3c(O)c2O)[C@H](O)[C@@H](O)[C@@H]1O [Baicalin] | > 100 µM | 0.718 |
| COc1c(O)cc2c(c1O)[C@@H]1O[C@H](CO)[C@@H](O)[C@H](O)[C@H]1OC2=O [Bergenin] | > 100 µM | 0.214 |
| C=C(C)[C@@H]1CC[C@]2(C=O)CC[C@]3(C)[C@H](CC[C@@H]4[C@@]5(C)CC[C@H](O)C(C)(C)[C@@H]5CC[C@]43C)[C@@H]12 [Betulinic aldehyde] | > 100 µM | 0.515 |
| O=C(NCc1c(F)cc(F)cc1F)c1cn2c(c(O)c1=O)C(=O)N1[C@H]3CC[C@H](C3)O[C@@H]1C2 [Bictegravir] | > 100 µM | 0.35 |
| CC[C@H](NC(=O)[C@H](C)NC)C(=O)N1C[C@@H](O)C[C@H]1Cc1c(-c2[nH]c3cc(F)ccc3c2C[C@@H]2C[C@H](O)CN2C(=O)[C@H](CC)NC(=O)[C@H](C)NC)[nH]c2cc(F)ccc12 [Birinapant] | > 100 µM | 0.282 |
| CC(C)(C)NC(=O)N[C@H](C(=O)N1C[C@H]2[C@@H]([C@H]1C(=O)NC(CC1CCC1)C(=O)C(N)=O)C2(C)C)C(C)(C)C (stereo not given in full) [Boceprevir] | > 100 µM | 0.228 |
| O=c1[nH]c(=O)n([C@H]2C[C@H](O)[C@@H](CO)O2)cc1/C=C/Br [Brivudine] | > 100 µM | 0.157 |
| CCCNC(=O)[C@H]1O[C@@H]1C(=O)N[C@H](C(=O)N1CCC[C@H]1C(=O)O)[C@@H](C)CC [CA-074] | > 100 µM | 0.179 |
| CN(C)C(=O)COC(=O)Cc1ccc(OC(=O)c2ccc(NC(=N)N)cc2)cc1.CS(=O)(=O)O [Camostat] | > 100 µM | 0.162 |
| CC(C)C[C@H](NC(=O)[C@H](CCc1ccccc1)NC(=O)CN1CCOCC1)C(=O)N[C@@H](Cc1ccccc1)C(=O)N[C@@H](CC(C)C)C(=O)[C@@]1(C)CO1 [Carfilzomib] | > 100 µM | 0.42 |

| SMILES | BMC10 any morphological effect or mortality (Danio rerio embryo) | Cell Health Index (HL-60) |
| --- | --- | --- |
| O=C(O)C[C@@H]1C(=O)O[C@H]2[C@@H]3OC(=O)c4cc(O)c(O)c(O)c4-c4c(cc(O)c(O)c4O)C(=O)OC[C@H]2O[C@@H](OC(=O)c2cc(O)c(O)c(O)c2)[C@@H]3OC(=O)c2cc(O)c(O)c3c2[C@H]1[C@H](O)C(=O)O3 [Chebulagic acid] | > 100 µM | 0.874 |
| O=C(/C=C/c1ccc(O)c(O)c1)O[C@@H](C(=O)O)[C@@H](OC(=O)/C=C/c1ccc(O)c(O)c1)C(=O)O [Chicoric acid] | > 100 µM | 0.468 |
| O=C(/C=C/c1ccc(O)c(O)c1)O[C@@H]1C[C@](O)(C(=O)O)C[C@@H](O)[C@H]1O [Chlorogenic acid] | > 100 µM | 0.232 |
| CCN(CC)CCCC(C)Nc1ccnc2cc(Cl)ccc12.O=P(O)(O)O.O=P(O)(O)O (stereo not given) [Chloroquine] | > 100 µM | 0.236 |
| Cc1cc(O)c2c(c1)C(=O)c1cccc(O)c1C2=O [Chrysophanol] | > 100 µM | 0.288 |
| CC(C)C[C@H](NC(=O)[C@@H](NC(=O)N[C@@H](Cc1ccccc1)C(=O)O)C1CCNC(=N)N1)C(=O)N[C@H](C=O)Cc1ccccc1 (stereo not given in full) [Chymostatin] | > 100 µM | 0.19 |
| Nc1ccn(C[C@@H](CO)OCP(=O)(O)O)c(=O)n1 [Cidofovir] | > 100 µM | 0.144 |
| [Cl-].c1c2c(cc3c1OCO3)-c1cc3ccc4c(c3c[n+]1CC2)OCO4 [Coptisine] | > 100 µM | 0.777 |
| O=C(OC1OC2COC(=O)c3cc(O)c(O)c(O)c3-c3c(cc(O)c(O)c3O)C(=O)OC(C2O)C1O)c1cc(O)c(O)c(O)c1 (stereo not given) [Corilagin] | > 100 µM | 0.889 |
| Nc1ccn([C@@H]2O[C@H](CO)[C@@H](O)[C@@H]2O)c(=O)n1 [Cytarabine] | > 100 µM | 0.203 |
| CO[C@H]1[C@H](O)[C@@H](O)[C@@H](O)[C@H](O)[C@@H]1O [D-Pinitol] | > 100 µM | 0.174 |
| CCCCCCOC(=O)NC(=N)c1ccc(NCc2nc3cc(C(=O)N(CCC(=O)OCC)c4ccccn4)ccc3n2C)cc1 [Dabigatran etexilate] | > 100 µM | 0.832 |
| Cn1c(CNc2ccc(C(=N)N)cc2)nc2cc(C(=O)N(CCC(=O)O)c3ccccn3)ccc21 [Dabigatran] | > 100 µM | 0.137 |
| COC(=O)N[C@H](C(=O)N1CCC[C@H]1c1ncc(-c2ccc(-c3ccc(-c4cnc([C@@H]5CCCN5C(=O)[C@@H](NC(=O)OC)C(C)C)[nH]4)cc3)cc2)[nH]1)C(C)C [Daclatasvir] | > 100 µM | 0.208 |
| O=c1c(-c2ccc(O)cc2)coc2cc(O[C@@H]3O[C@H](CO)[C@@H](O)[C@H](O)[C@H]3O)ccc12 [Daidzin] | > 100 µM | 0.169 |
| CC(C)(C)OC(=O)N[C@H]1CCCCC/C=C\[C@@H]2C[C@@]2(C(=O)NS(=O)(=O)C2CC2)NC(=O)[C@@H]2C[C@@H](OC(=O)N3Cc4cccc(F)c4C3)CN2C1=O [Danoprevir] | > 100 µM | 0.26 |
| COc1cc2cc(Oc3ccc4ccc(=O)oc4c3)c(=O)oc2cc1O [Daphnoretin] | > 100 µM | 0.178 |
| Cc1cc(C)c(Nc2ccnc(Nc3ccc(C#N)cc3)n2)c(C)c1 [Dapivirine] | > 100 µM | 0.836 |
| COc1c(-c2ccc3cc(NS(C)(=O)=O)ccc3c2)cc(-n2ccc(=O)[nH]c2=O)cc1C(C)(C)C [Dasabuvir] | > 100 µM | 0.608 |
| Cc1c(O)c(=O)ccn1C [Deferiprone] | > 100 µM | 0.256 |
| CC(=O)N(O)CCCCCNC(=O)CCC(=O)N(O)CCCCCNC(=O)CCC(=O)N(O)CCCCCN.CS(=O)(=O)O [Deferoxamine] | > 100 µM | 0.23 |
| CC(C)Nc1cccnc1N1CCN(C(=O)c2cc3cc(NS(C)(=O)=O)ccc3[nH]2)CC1.CS(=O)(=O)O [Delavirdine] | > 100 µM | 0.324 |
